Measured values published in patent publication US9604998B2, “Inhibitors of the renal outer medullary potassium channel” (MERCK SHARP & DOHME CORP., priority 2013, dated 2017).
Where a name gives a salt, the structure may show the parent alone. Read-outs that look alike come from different tables or passages of the source.

Legend:
[1] = molecular target: Kir1.1 (ROMK1) (Homo sapiens (Human), UniProt P48048); experiment: Electrophysiology Assay (whole cell voltage clamp, IonWorks Quattro); format: cell-based; settings: block during voltage step to 0 mV
Kir1.1 (ROMK1), sequence (P48048 whole entry, species assumed): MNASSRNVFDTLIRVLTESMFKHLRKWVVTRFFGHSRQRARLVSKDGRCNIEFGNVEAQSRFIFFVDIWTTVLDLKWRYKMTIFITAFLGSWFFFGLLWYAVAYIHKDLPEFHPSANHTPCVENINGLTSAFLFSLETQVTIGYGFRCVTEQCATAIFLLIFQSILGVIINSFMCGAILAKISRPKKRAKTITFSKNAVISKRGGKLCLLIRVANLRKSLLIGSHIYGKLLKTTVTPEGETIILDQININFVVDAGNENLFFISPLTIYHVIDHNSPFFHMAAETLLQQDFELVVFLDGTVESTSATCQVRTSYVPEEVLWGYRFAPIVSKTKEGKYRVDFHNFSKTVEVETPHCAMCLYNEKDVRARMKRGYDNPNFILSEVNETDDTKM
In short: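 CHO cells stably expressing the channel, induced overnight with 1 mM sodium butyrate, were recorded in amphotericin-perforated patch mode. The test pulse was a 100 ms step to 0 mV from −70 mV, then a −70 to +70 mV ramp, applied before and after a 6 min compound incubation. Current amplitudes were compared.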

[2] = molecular target: hROMK (hKir1.1) (Homo sapiens (Human), UniProt P48048); experiment: Thallium Flux Assay (ROMK channel functional thallium flux, FLIPR-Tetra); format: cell-based
hROMK (hKir1.1), sequence (P48048 whole entry): as the sequence (P48048 whole entry, species assumed) above

[3] = Electrophysiology IC50, Chinese hamster ovary cells stably expressing Kir1.1
[4] = Thallium Flux IC50, HEK293 cells stably expressing hROMK (hKir1.1)
[5] = Chinese hamster ovary cells stably expressing Kir1.1, read-out: Electrophysiology IC50
[6] = HEK293 cells stably expressing hROMK (hKir1.1), read-out: Thallium Flux IC50

Compound | IC50 [1, 3] [nM] | IC50 [2, 4] [nM] | IC50 [1, 5] [nM] | IC50 [2, 6] [nM]
Cc1cc2c(cc1C(O)CN1CCN3C[C@H](c4ccc(F)c(C#N)c4C)OC[C@@H]3C1)COC2=O (single isomer, unassigned) [Example 27, trifluoroacetate] | 240 | 310 | – | –
Cc1c([C@@H]2CN3CCN(CC(O)c4ccc5c(c4C4CC4)COC5=O)C[C@H]3CO2)ccc2c1COC2=O (single isomer, unassigned) [Example 51] | – | – | 230 | 400
COc1c(CCN2CCN3C[C@@H](c4ccc5c(c4C)COC5=O)OC[C@@H]3C2)ccc(C#N)c1F [Example 95] | – | – | 110 | 120
Cc1cc2c(cc1C(O)CN1CCN3C[C@@H](c4ccc(F)c(C#N)c4C)OC[C@@H]3C1)COC2=O (single isomer, unassigned) [Example 25, trifluoroacetate] | 190 | 340 | – | –
COc1cc([C@@H]2CN3CCN(CCc4ccc5c(c4C)COC5=O)C[C@@H]3CO2)ccc1C#N [Example 76] | – | – | 90 | 440
Cc1cc(-n2cnnn2)ncc1C(O)CN1CCN2C[C@@H](c3ccc(F)c(C#N)c3C)OC[C@@H]2C1 (single isomer, unassigned) [Example 20] | 240 | – | – | 300
Cc1c([C@@H](O)CN2CCN3C[C@H](c4ccc(C#N)c(F)c4)OC[C@H]3C2)ccc2c1COC2=O [Example 28, (3S,9aR)-3-(4-cyano-3-fluorophenyl)-8-[(2R)-2-hydroxy-2-(4-methyl-1-oxo-1,3-dihydro-2-benzofuran-5-yl)ethyl]octahydropyrazino[2,1-c][1,4]oxazin-8-ium chloride] | – | – | 90 | 190
Cc1cc(-n2cnnn2)ncc1C(O)CN1CCN2C[C@@H](c3ccc(F)c(C#N)c3C)OC[C@@H]2C1 (single isomer, unassigned) [Example 19] | 260 | – | – | 440
Cc1c([C@@H](O)CN2CCN3C[C@H](c4ccc5c(c4C)COC5=O)SC[C@@H]3C2)ccc2c1COC2=O [Example 55, 5-{(3S,9aS)-8-[(2R)-2-hydroxy-2-(4-methyl-1-oxo-1,3-dihydro-2-bcnzofuran-5-yl)ethyl]octahydropyrazino[2,1-c][1,4]thiazin-3-yl}-4-methyl-2-benzofuran-1(3H)-one] | – | – | 90 | 330
Cc1cc2c(cc1C(O)CN1CCN3C[C@H](c4ccc(F)c(C#N)c4C)OC[C@@H]3C1)COC2=O (single isomer, unassigned) [Example 26, trifluoroacetate] | 220 | 250 | – | –
Cc1c([C@@H]2CN3CCN(CC(O)c4ccc5c(c4)C[C@@H](C)OC5=O)C[C@H]3CO2)ccc2c1COC2=O (single isomer, unassigned) [Example 46] | – | – | 110 | 280
COc1cc([C@H]2CN3CCN(CC(O)c4ccc5c(c4C)COC5=O)C[C@H]3CO2)ccc1C#N (stereo partly drawn) [Example 4, (3S,9aS)-3-(4-cyano-3-methoxyphenyl)-8-[2-hydroxy-2-(4-methyl-1-oxo-1,3-dihydro-2-benzofuran-5-yl)ethyl]octahydropyrazino[2,1-c][1,4]oxazin-5-ium chloride] | – | – | 80 | 430
